For 15 molecules, EC50 results are on record in patent publication US20250320213A1, “Nitrogen-Containing Heterocyclic Compounds” (Pfizer Inc., priority 2024, published 2025).

The target in this assay is T1, STAT6 (Homo sapiens, UniProt P42226).
T1 construct: stably transfected HaCaT keratinocyte cell line, which expresses NanoLuc luciferase reporter gene under the transcriptional control of the STAT6 responsive promoter; endogenous in cells; host or cells: HaCaT keratinocyte reporter cell line (stably transfected with a NanoLuc reporter)
T1 sequence (P42226 1-847): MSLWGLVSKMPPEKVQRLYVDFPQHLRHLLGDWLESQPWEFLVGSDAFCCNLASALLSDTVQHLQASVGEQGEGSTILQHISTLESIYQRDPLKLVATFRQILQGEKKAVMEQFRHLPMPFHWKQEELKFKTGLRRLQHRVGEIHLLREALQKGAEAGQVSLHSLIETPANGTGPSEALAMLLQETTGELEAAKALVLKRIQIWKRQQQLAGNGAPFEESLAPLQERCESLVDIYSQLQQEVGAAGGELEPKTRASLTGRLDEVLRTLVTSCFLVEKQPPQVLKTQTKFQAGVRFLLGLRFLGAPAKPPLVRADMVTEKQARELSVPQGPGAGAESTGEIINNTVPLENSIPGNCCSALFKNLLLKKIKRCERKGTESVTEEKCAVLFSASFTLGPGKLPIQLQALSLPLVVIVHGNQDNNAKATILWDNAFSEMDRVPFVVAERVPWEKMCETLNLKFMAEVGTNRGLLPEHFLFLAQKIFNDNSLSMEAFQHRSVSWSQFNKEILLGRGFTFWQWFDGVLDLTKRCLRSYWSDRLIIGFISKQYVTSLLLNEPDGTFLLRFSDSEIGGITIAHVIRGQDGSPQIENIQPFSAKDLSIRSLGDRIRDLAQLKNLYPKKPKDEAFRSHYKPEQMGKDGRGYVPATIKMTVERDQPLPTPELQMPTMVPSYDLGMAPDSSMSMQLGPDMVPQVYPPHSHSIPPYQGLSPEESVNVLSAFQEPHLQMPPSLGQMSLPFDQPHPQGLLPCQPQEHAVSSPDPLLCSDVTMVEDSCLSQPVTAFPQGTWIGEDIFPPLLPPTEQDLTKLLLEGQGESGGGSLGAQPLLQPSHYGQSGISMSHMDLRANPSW
Put plainly: STAT6 Reporter Luciferase Assay (IL-13 stimulated HaCaT keratinocyte NanoLuc reporter cells). The assay is classed as cell-based. The following applies: IL-13 stimulated HaCaT STAT6 NanoLuc reporter cells; read-out: Reporter EC50. The method, boiled down: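 Compounds were tested as 11-point, 4-fold series in duplicate, applied for 2 h at 37 °C in low-serum (2% FBS) DMEM. The cells were a stable HaCaT line with NanoLuc under a STAT6-responsive IL-13Ra2 promoter. After 4 h with 0.12 nM IL-13, Nano-Glo luminescence was measured.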
As to `CC(C)n1nc(C(=O)NCc2ccc(NC(=O)N3CCC4(CCCN(C)C4)CC3)c(F)c2)c2c1[C@@H](C)CN(c1ccc(C(=O)N(C)C)cc1)C2` [Example 644, (S)-N-(4-((5-(4-(dimethylcarbamoyl)phenyl)-1-isopropyl-7-methyl-4,5,6,7-tetrahydro-1H-pyrazolo[4,3-c]pyridine-3-carboxamido)methyl)-2-fluorophenyl)-2-methyl-2,9-diazaspiro[5.5]undecane-9-carboxamide], the 50% effective concentration (EC50) is 1 nM.
Turning to `CC(C)n1nc(C(=O)NCc2ccc(NC(=O)N3CCC4(CC3)CCN4C)c(F)c2)c2c1[C@@H](C)CN(c1ccc(C(=O)N(C)C)cc1)C2` [Example 645, (S)-5-(4-(dimethylcarbamoyl)phenyl)-N-(3-fluoro-4-(1-methyl-1,7-diazaspiro[3.5]nonane-7-carboxamido)benzyl)-1-isopropyl-7-methyl-4,5,6,7-tetrahydro-1H-pyrazolo[4,3-c]pyridine-3-carboxamide], the concentration giving a half-maximal response (EC50) was determined as 1 nM.
As to `CC(C)n1nc(C(=O)NCc2ccc(NC(=O)N3CC4(CCCN(C)C4)C3)c(F)c2)c2c1[C@@H](C)CN(c1ccc(C(=O)N(C)C)cc1)C2` [Example 646, (S)-5-(4-(dimethylcarbamoyl)phenyl)-N-(3-fluoro-4-(6-methyl-2,6-diazaspiro[3.5]nonane-2-carboxamido)benzyl)-1-isopropyl-7-methyl-4,5,6,7-tetrahydro-1H-pyrazolo[4,3-c]pyridine-3-carboxamide], the 50% effective concentration (EC50) came to 1 nM.
`CC(C)n1nc(C(=O)NCc2ccc(NC(=O)N3CCC4(CC3)CN(C)C4)c(F)c2)c2c1[C@@H](C)CN(c1ccc(C(=O)N(C)C)cc1)C2` [Example 647, (S)-5-(4-(dimethylcarbamoyl)phenyl)-N-(3-fluoro-4-(2-methyl-2,7-diazaspiro[3.5]nonane-7-carboxamido)benzyl)-1-isopropyl-7-methyl-4,5,6,7-tetrahydro-1H-pyrazolo[4,3-c]pyridine-3-carboxamide]: the EC50 stood at 1 nM.
Consider `CC(C)n1nc(C(=O)NCc2ccc(NC(=O)N3CCN(C)C4(CC4)C3)c(F)c2)c2c1[C@@H](C)CN(c1ccc(C(=O)N(C)C)cc1)C2` [Example 648, (S)-5-(4-(dimethylcarbamoyl)phenyl)-N-(3-fluoro-4-(4-methyl-4,7-diazaspiro[2.5]octane-7-carboxamido)benzyl)-1-isopropyl-7-methyl-4,5,6,7-tetrahydro-1H-pyrazolo[4,3-c]pyridine-3-carboxamide], for which the EC50 came to 1 nM.
`CC(C)n1nc(C(=O)NCc2ccc(NC(=O)N3CCN(C)CC3)cc2)c2c1[C@@H](C)CN(c1ccc3c(c1)CCCN(C)C3=O)C2` [Example 651, (S)-1-isopropyl-7-methyl-5-(2-methyl-1-oxo-2,3,4,5-tetrahydro-1H-benzo[c]azepin-7-yl)-N-(4-(4-methylpiperazine-1-carboxamido)benzyl)-4,5,6,7-tetrahydro-1H-pyrazolo[4,3-c]pyridine-3-carboxamide]: the EC50 was 1 nM.
With `Cc1nn(C)c(=O)n1-c1ccc(N2Cc3c(C(=O)NCc4ccc(NC(=O)N5CCN(C)CC5)cc4)nn(C(C)C)c3[C@@H](C)C2)cc1` [Example 652, (S)-5-(4-(1,3-dimethyl-5-oxo-1,5-dihydro-4H-1,2,4-triazol-4-yl)phenyl)-1-isopropyl-7-methyl-N-(4-(4-methylpiperazine-1-carboxamido)benzyl)-4,5,6,7-tetrahydro-1H-pyrazolo[4,3-c]pyridine-3-carboxamide], the EC50 was 5 nM.
With `CC(C)n1nc(C(=O)NCc2ccc(NC(=O)N3CCN(C)CC3)cc2)c2c1[C@@H](C)CN(c1ccc(-c3nccn3C3CC3)cn1)C2` [Example 653, (S)-5-(5-(1-cyclopropyl-1H-imidazol-2-yl)pyridin-2-yl)-1-isopropyl-7-methyl-N-(4-(4-methylpiperazine-1-carboxamido)benzyl)-4,5,6,7-tetrahydro-1H-pyrazolo[4,3-c]pyridine-3-carboxamide], the EC50 worked out at 3 nM.
Consider `CC(C)n1nc(C(=O)NCc2ccc(NC(=O)N3CCN(C)CC3)cc2)c2c1[C@@H](C)CN(c1ccc(-c3nccn3C(F)F)cn1)C2` [Example 654, (S)-5-(5-(1-(difluoromethyl)-1H-imidazol-2-yl)pyridin-2-yl)-1-isopropyl-7-methyl-N-(4-(4-methylpiperazine-1-carboxamido)benzyl)-4,5,6,7-tetrahydro-1H-pyrazolo[4,3-c]pyridine-3-carboxamide], for which the EC50 came to 2 nM.
Under `CC(C)n1nc(C(=O)NCc2ccc(NC(=O)N3CCN(C)CC3)cc2)c2c1[C@@H](C)CN(c1ccc(-c3nncn3C3CC3)cn1)C2` [Example 655, (S)-5-(5-(4-cyclopropyl-4H-1,2,4-triazol-3-yl)pyridin-2-yl)-1-isopropyl-7-methyl-N-(4-(4-methylpiperazine-1-carboxamido)benzyl)-4,5,6,7-tetrahydro-1H-pyrazolo[4,3-c]pyridine-3-carboxamide] stands 2 nM; under `Cc1noc(=O)n1-c1ccc(N2Cc3c(C(=O)NCc4ccc(NC(=O)N5CCN(C)CC5)cc4)nn(C(C)C)c3[C@@H](C)C2)cc1` [Example 656, (S)-1-isopropyl-7-methyl-5-(4-(3-methyl-5-oxo-1,2,4-oxadiazol-4(5H)-yl)phenyl)-N-(4-(4-methylpiperazine-1-carboxamido)benzyl)-4,5,6,7-tetrahydro-1H-pyrazolo[4,3-c]pyridine-3-carboxamide], 2 nM.
Regarding `CC(C)n1nc(C(=O)NCc2ccc(NC(=O)N3CCN(C)CC3)cc2)c2c1[C@@H](C)CN(c1ccc3c(c1)OCCN(C)C3=O)C2` [Example 657, (S)-1-isopropyl-7-methyl-5-(4-methyl-5-oxo-2,3,4,5-tetrahydrobenzo[f][1,4]oxazepin-8-yl)-N-(4-(4-methylpiperazine-1-carboxamido)benzyl)-4,5,6,7-tetrahydro-1H-pyrazolo[4,3-c]pyridine-3-carboxamide], the EC50 was found to be 2 nM.
Take `CC(C)n1nc(C(=O)NCc2ccc(NC(=O)N3CCN(C)CC3)cc2)c2c1[C@@H](C)CN(c1ccc(-c3nncn3C)cn1)C2` [Example 658, (S)-1-isopropyl-7-methyl-5-(5-(4-methyl-4H-1,2,4-triazol-3-yl)pyridin-2-yl)-N-(4-(4-methylpiperazine-1-carboxamido)benzyl)-4,5,6,7-tetrahydro-1H-pyrazolo[4,3-c]pyridine-3-carboxamide]: the EC50 stood at 4 nM.
Consider `CC(C)n1nc(C(=O)NCc2ccc(NC(=O)N3CC(C)(N(C)C)C3)c(F)c2)c2c1[C@@H](C)CN(c1ccc(C(=O)N(C)C)cc1)C2` [Example 659, (S)-N-(4-(3-(dimethylamino)-3-methylazetidine-1-carboxamido)-3-fluorobenzyl)-5-(4-(dimethylcarbamoyl)phenyl)-1-isopropyl-7-methyl-4,5,6,7-tetrahydro-1H-pyrazolo[4,3-c]pyridine-3-carboxamide], for which the EC50 is 8 nM.
With `CC(C)n1nc(C(=O)NCc2ccc(NC(=O)N3CCC4(CCN(C)CC4)CC3)c(F)c2)c2c1[C@@H](C)CN(c1ccc(C(=O)N(C)C)cc1)C2` [Example 660, (S)-N-(4-((5-(4-(dimethylcarbamoyl)phenyl)-1-isopropyl-7-methyl-4,5,6,7-tetrahydro-1H-pyrazolo[4,3-c]pyridine-3-carboxamido)methyl)-2-fluorophenyl)-9-methyl-3,9-diazaspiro[5.5]undecane-3-carboxamide], the EC50 stood at 4 nM.
